Results on two compounds are retold here after ChEMBL document CHEMBL1143643, “Synthesis and evaluation of antiplatelet activity of trihydroxychalcone derivatives” (Bioorg Med Chem Lett, 2005).

By IC50 is commonly meant the concentration that gives 50% inhibition.

Where only a bound is given, the exact number is not on record here.

The species named for experiment [1] is Oryctolagus cuniculus. Kind of experiment: In vitro inhibitory effects on collagen induced rabbit platelet aggregation upon incubation at 37 degree C for 4 minutes. The format is functional.
The species named for experiment [2] is Oryctolagus cuniculus. Kind of experiment: In vitro inhibitory effects on arachidonic acid induced rabbit platelet aggregation upon incubation at 37 degree C for 4 minutes. In kind it is functional.

With `CN(C)c1ccc(/C=C/C(=O)c2c(O)cc(O)cc2O)cc1`, the IC50 in the experiment filed under Oryctolagus cuniculus [1] and in the experiment listed under Oryctolagus cuniculus [2] was more than 100 µM each time.
`COc1cc(/C=C/C(=O)c2c(O)cc(O)cc2O)ccc1OCc1ccccc1`: the concentration for half-maximal inhibition (IC50) turned out to be 37.4 µM in the experiment filed under Oryctolagus cuniculus [1] and 28.5 µM in the experiment filed under Oryctolagus cuniculus [2].
